Experimental data as given in PubChem BioAssay AID179 (DTP/NCI, 2004).
Where “and” joins values, the source holds several entries; their conditions need not be identical. Equal values may be shown once. Calls of active or inactive are those of the source.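 The calls were made as follows: active = compounds giving half or more protection of infected cells from virus-caused growth loss, again on retest; inactive = the rest.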

Test system: CEM cells HIV-1 protection, formazan growth assay
Assay: NCI AIDS Antiviral Assay
Conditions: for IC50: measured here: growth of uninfected CEM cells
Method in brief: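 Human CEM cells, uninfected and HIV-1-infected, received five drug concentrations, and growth was read by soluble formazan assay. Compounds giving at least 50% protection were retested; reproducible 100% protection defined confirmed active.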

Compound | EC50 | IC50 | outcome
COc1cc2c(c(OC)c1OC)C(=O)[C@@H]1[C@H]2N1C(=O)NCCCl | > 200 µM | 45.7 µM | 
O=C(OC[C@H]1O[C@@H](OC(=O)c2cc(O)c(O)c(O)c2)[C@H](OC(=O)c2cc(O)c(O)c(O)c2)[C@@H](OC(=O)c2cc(O)c(O)c(O)c2)[C@@H]1OC(=O)c1cc(O)c(O)c(O)c1)c1cc(O)c(O)c(O)c1 | > 132 µM | 21.4 µM | 
COC(=O)CCc1ccc2c(c1)CC1(C2)Cc2ccc3c(c2C1)CCC3 (stereo not drawn) | > 200 µM | > 200 µM | 
O=C(O)/C=C\SCCCC(=O)O | > 1320 µM | > 1320 µM and 1100 µM | 
Cc1ccc([P+](Cc2ccccc2)(c2ccccc2)c2ccccc2)cc1 | > 200 µM | 1.1 µM | 
CCN(c1ccccc1)c1cc(=O)nc2ccccn12 | > 200 µM | > 200 µM | 
O=c1oc2ccccc2c(O)c1C(c1ccco1)c1c(O)c2ccccc2oc1=O | > 200 µM | 33.9 µM | 
CN(C)c1ccc(/C=C/C(=O)c2ccccc2)cc1 | > 39.8 µM | 14.8 µM | 
CCc1cc(-c2ccco2)c(C#N)c(=S)n1C1OC(COC(C)=O)C(OC(C)=O)C(OC(C)=O)C1OC(C)=O (stereo not drawn) | > 200 µM | 79.4 µM | 
O=C(O[C@@H]1C(=O)N2CC[C@H]3OC(O)[C@@H]1[C@H]32)c1ccc([N+](=O)[O-])cc1 (stereo partly drawn) | > 200 µM | > 200 µM | 
O=C1NC23CC=CCC12CCCCCC3 (stereo not drawn) | > 389 µM |  | 
NS(=O)(=O)c1cc[c]([Sb](=[O])([OH])[OH])cc1 | > 200 µM | > 200 µM | 
CCC1(CCCC=C(c2cc(Cl)c(OC)c(C(=O)OC)c2)c2cc(Cl)c(OC)c(C(=O)OC)c2)OCCO1 | > 200 µM | 148 µM | 
CCOC(=O)CCc1c(C)[nH]c2c(C)c3c([nH]c4ccc(Cl)cc43)c(C)c2c1=O | > 200 µM | 11 µM | 
COC(=O)C1=CC2CC1C(S(=O)(=O)c1ccccc1)C2S(=O)(=O)c1ccccc1 (stereo not drawn) | > 100 µM | 4.57 µM | 
c1ccc(CCN(CCc2ccccn2)CCc2ccccn2)nc1 | > 200 µM | > 100 µM | 
COc1ccc(-c2cc3c(nn2)-c2ccccc2C3=O)cc1 | > 100 µM | > 100 µM | 
COc1ccc(C(OCC2OC(N3CN4C(=NC3=O)N(C(=O)C(C)C)C(OC(=O)C(C)C)C4OC(=O)C(C)C)CC2OP(OC)N(C(C)C)C(C)C)(c2ccccc2)c2ccc(OC)cc2)cc1 (stereo not drawn) | > 100 µM | > 100 µM | 
C=C1CCOC2(C(O)C(C)(O)CO)NC(=O)C1(O)NC2=O (stereo not drawn) |  |  | inactive
O=c1c2cc(Br)ccc2n(C2OC(CO)C(O)C(O)C2O)c(=S)n1-c1ccccc1 (stereo not drawn) | > 52.5 µM | > 52.5 µM | 
O=C(/C=C\c1ccc(O)c(O)c1)OC1C(O)CC(OC(=O)/C=C/c2ccc(O)c(O)c2)(C(=O)O)CC1O (stereo not drawn) | > 200 µM | 30.2 µM | 
CC1(C)CC(=O)c2c(nc(SSc3nc4c(c(-c5ccccc5)c3C#N)C(=O)CC(C)(C)C4)c(C#N)c2-c2ccccc2)C1 | > 200 µM | 89.1 µM | 

Compound | EC50 | IC50 | outcome
CCC[CH2][Sn]([CH2]CCC)([O]C(=O)C(OC(C)=O)c1ccccc1)[O]C(=O)C(OC(C)=O)c1ccccc1 (stereo not drawn) | > 11.5 µM | 0.191 µM | 
Clc1ccccc1C(n1cc(Br)cn1)n1cc(Br)cn1 |  |  | inactive
O=[N+]([O-])c1cc(C(F)(F)F)cc2n[se]nc12 |  |  | inactive
NS(=O)(=O)C1CCCCC1C(=O)NNC(=O)C(=O)Nc1nc(=S)[nH][nH]1 (stereo not drawn) | > 646 µM | > 646 µM | 
CC(=O)c1ccc(NC(=O)C(=O)C(C(=O)c2ccc(Cl)c(Cl)c2)C2OC(=O)c3ccccc32)cc1 (stereo not drawn) | > 87.1 µM | 12.6 µM | 
CSC1(C)CC2C(CC1N1CCOCC1)C2(C)C (stereo not drawn) | > 95.5 µM | > 95.5 µM | 
COC(=O)/C(=C\c1cn(C(C)=O)c2ccccc12)P(=O)(OC)OC | > 200 µM | 33.1 µM | 
C=C(C)Cn1c(=O)n(CC(=C)C)c(=O)n(CC(=C)C)c1=O | > 200 µM | 81.3 µM | 
NC(=O)c1nnc2c(F)cccc2c1N | > 200 µM | 182 µM | 
CCOC(=O)c1nc2ccccc2nc1NCc1ccc(Cl)cc1Cl | > 100 µM | 72.4 µM | 
CN(/N=C/c1ccc(Cl)cc1)C1=NCCCCN1 | > 200 µM | 87.1 µM | 
CCOC(=O)c1nn2c(C)nnc2s1 |  |  | inactive
COC(=O)c1cccc2cccc(C(=O)Nc3ccc(C)cc3C)c12 | > 2.24 µM | > 2.24 µM | 
COc1cc2c3c(c1)ncn3C(=O)C(c1ccccc1)S2 (stereo not drawn) | > 200 µM | 87.1 µM | 
CC(C)CCC[C@@H](C)C1CCC2[C@@H]3CC=C4C[C@@H](OP(=O)(O)OP(=O)(O)O)CC[C@]4(C)C3CC[C@@]21C (stereo partly drawn) | > 6.17 µM | > 6.17 µM | 
N#[N+]C1=NC2C(=O)NC=NC2=N1 (stereo not drawn) | > 83.2 µM | > 83.2 µM | 
O=C(O)c1cc(N=C=S)ccc1-c1c2ccc(=O)cc-2oc2cc(O)ccc12 | 43.7 µM and 44.7 µM | 316 µM and > 100 µM | 
COC(=O)C(=O)C(C(=O)C(=O)Nc1cccc(C(C)=O)c1)c1nc2ccccc2[nH]c1=O (stereo not drawn) | > 575 µM | 302 µM | 
O=c1n(-c2ccccc2)c(=O)n2n1C1C=CC2C23C=CC12CCCC3 (stereo not drawn) | > 100 µM | 77.6 µM | 
Cc1cc2n(C)cc(-c3ccnn3C)c(=O)n2n1 | > 151 µM | > 151 µM | 
NC(CCCCNc1ccn(C2OC(CO)C(O)C2O)c(=O)n1)C(=O)O (stereo not drawn) | > 100 µM | 5.5 µM | 
O=c1[nH]nc(Cc2ccccc2)n1CCO |  |  | inactive

Compound | EC50 | IC50 | outcome
COc1ccccc1C1=C2C(=O)N(C)C(c3ccccc3OC)=C2C(=O)N1C | > 100 µM | > 100 µM | 
N#C/C(=C(\O)c1ccccc1)c1nc2ccccc2[nH]1 | > 69.2 µM | > 69.2 µM | 
[N-]=[N+]=NC1=C(N=[N+]=[N-])c2cccc3cccc(c23)C1=O |  |  | inactive
CCCCCCCCCCCCc1ccsc1-c1ccc(-c2ccc(-c3sccc3CCCCCCCCCCCC)s2)s1 | > 25.1 µM | > 25.1 µM | 
O=C(O)CCCCCCCCCc1ccccc1 | > 200 µM | 107 µM | 
CC(=O)N(C[C@H]1CN(Cc2ccccc2)CC[C@H]1O)C12CC3CC(CC(C3)C1)C2 | > 91.2 µM | 69.2 µM | 
COP(=O)(OC)/C(C#N)=C/c1ccco1 | > 1100 µM | 832 µM | 
OC1CCCCCCCCCCC1SCCCCl (stereo not drawn) | > 200 µM | > 200 µM | 
COc1cc2ccnc3c2c(c1O)-c1ccccc1C3=O |  |  | inactive
CCC(C#N)NCc1cccc(CNC(C#N)CC)c1 (stereo not drawn) | > 200 µM | > 200 µM | 
Cc1cc(C23OC4COC(C)(C)OC4C2OC(C)(C)O3)nc2ccccc12 (stereo not drawn) | > 200 µM | 102 µM | 
O=c1ccn(C2OC(CO)C(O)C2[Se]c2ccccc2)c(=O)[nH]1 (stereo not drawn) | > 200 µM | > 200 µM | 
Nc1ncnc2c1ncn2C1CC(O)C(CO)O1 (stereo not drawn) | > 1000 µM | 186 µM | 
CN1C(=O)C(Cl)(C#N)C(c2ccccc2)N(C)C1c1ccccc1 (stereo not drawn) | > 200 µM | 8.71 µM | 
C=CCNc1nc2c(N)ncnc2s1 | > 200 µM | > 200 µM | 
C=C1C(=O)OC2C3C(C)=CC(=O)C3=C(C)CC[C@@H]12 (stereo partly drawn) | > 30.9 µM | 2.04 µM | 
Cc1cc(C)c(COC(=O)NS(=O)(=O)Nc2ccccc2)c(C)c1 | > 200 µM | 43.7 µM | 
CN(C)N=Nc1ccc(S(N)(=O)=O)cc1 | > 295 µM | 37.2 µM | 
CCOP(=O)(C=C=C(C)C)OCC | > 200 µM | > 200 µM | 
COc1ccc(C(c2ccccc2)N2C(=O)CCC2C(=O)O)cc1OC (stereo not drawn) | > 200 µM | > 200 µM | 
CC(=O)N(C(C)=O)n1c(Cc2ccc(Cl)cc2)n[nH]c1=O | > 200 µM | > 200 µM | 
[Ni].c1c[nH]cn1.c1c[nH]cn1.c1c[nH]cn1.c1c[nH]cn1.c1c[nH]cn1.c1c[nH]cn1 | > 66.1 µM | > 66.1 µM | 

Compound | EC50 | IC50 | outcome
CCCCCC(=O)c1c(O)cc2c(c1O)C(=O)c1c(O)cc(O)cc1C2=O | > 200 µM | 56.2 µM | 
CN(CCc1ccccn1)c1nc(=[N+](C)C)ss1 |  |  | inactive
Nc1nc2ncn(CC(O)COC(=O)c3ccccc3)c2c(=O)[nH]1 (stereo not drawn) | > 21.9 µM | > 21.9 µM | 
COc1ccc(C[C@H]2COC(=O)[C@@H]2Cc2ccc(O)c(O)c2)cc1OC | > 200 µM | 19.5 µM | 
NC(=S)NN=C1CSSC1 | > 200 µM | 11.7 µM | 
NC(CCc1nc(-c2ccc(Cl)cc2)cs1)C(=O)O (stereo not drawn) |  |  | inactive
CCOC(=O)/C(C#N)=C/c1ccc2c(-c3c(OCC)ccc4cc(/C=C(\C#N)C(=O)OCC)ccc34)c(OCC)ccc2c1 | > 200 µM | > 200 µM | 
Cc1ccc(NC(=O)CCC(=O)C(C#N)c2ccc(Cl)cc2)cc1C (stereo not drawn) | > 708 µM | > 708 µM | 
CCOC(=O)c1c[nH]c2oc(/C=N/N3CC(CN4CCOCC4)OC3=O)cc2c1=O (stereo not drawn) | > 302 µM | 162 µM | 
C=CCCCn1ccc2ccccc21 |  |  | inactive
CCOC(=O)NC(Nc1ncccn1)(C(F)(F)F)C(F)(F)F | > 191 µM | 186 µM | 
CCOC(=O)NN(C(=O)OCC)C(=C(c1ccccc1)N1CCOCC1)N(NC(=O)OCC)C(=O)OCC | > 200 µM | > 200 µM | 
CC(O)c1c2c(cc3c1CC1(C3)Cc3cc4c(c(C(C)O)c3C1)CCC4)CCC2 (stereo not drawn) | > 200 µM | 9.55 µM | 
COc1ccc(/C=c2\[nH]c3nc(=O)c(N4CCOCC4)c(N)n3c2=O)cc1 | > 200 µM | > 200 µM | 
Cc1cc(C2C(=O)c3ccccc3C2=O)cc(C)c1O |  |  | inactive
C=C1C(=O)SC(=NCc2ccccc2)N1C | > 204 µM | 132 µM | 
CC1=C2CC/C(C)=C/CCC3(C)OC3CC/C(C)=C/C2OC1=O (stereo not drawn) | > 200 µM | > 200 µM | 
CN(C)c1ccc(/C=C2\C=Cc3ccccc32)c(F)c1 | > 14.1 µM | > 14.1 µM | 
Cc1cccc(NC(=O)/C(=N\N)C(c2cnc3ccc([N+](=O)[O-])cc3n2)[N+](=O)[O-])c1C (stereo not drawn) | > 85.1 µM | 66.1 µM | 
C=C(C)C1=NC(C)(C)CC1=C(C)C |  |  | inactive
c1ccc2c(c1)[nH]c1c[n+]3c(c[n+]12)[nH]c1ccccc13 | > 200 µM | > 200 µM | 
CCOC(=O)C1(NC(=O)OC(C)(C)C)CCc2[nH]oc(=O)c2C1 (stereo not drawn) | > 200 µM | > 200 µM | 
